Laboratory results published in patent US20230366887A1, “METHODS OF DETECTING AND USING BIOMARKERS FOR GLYCOGEN STORAGE DISEASES” (Duke University, priority 2020, published 2023).
“And” between values parts separate entries of the source, which are not always exact repeats. Equal entries are not always repeated.

What was measured:
[1] = cited from earlier work
1,5-AG = experiment: Level of 1,5-AG in subjects having GSD Ib after Jardiance treatment; format: in vivo, human; conditions: reference range in normal adults 10.7-32.0, in µg/mL (unit assumed)
Description: The level of 1,5-AG was determined in 6 subjects having GSD Ib. Here, the reference range of 1,5-AG in normal, non-GSD Ib adults is 10.7-32.0.

| Structure (SMILES) | half-life in blood ([1]; blood) | excreted amount in urine reabsorbed by the kidneys ([1]; reabsorption at sodium glucose active cotransporter (SGLT4)) | Level of 1,5-AG After Jardiance Treatment (1,5-AG; first value after treatment) | Level of 1,5-AG After Jardiance Treatment (1,5-AG; later value ('then')) |
| --- | --- | --- | --- | --- |
| OC[C@H]1OC[C@H](O)[C@@H](O)[C@@H]1O [1,5-AG, 1,5-anhydroglucitol] | 1-2 weeks | About 99.9% |  |  |
| OC[C@H]1O[C@@H](c2ccc(Cl)c(Cc3ccc(O[C@H]4CCOC4)cc3)c2)[C@H](O)[C@@H](O)[C@@H]1O [Jardiance] |  |  | 20.7 and 33.1 | 7.8 |
